Test results published in patent US8617542B2, “DispersinB™, 5-fluorouracil, deoxyribonuclease I and proteinase K-based antibiofilm compositions and uses thereof” (Kane Biotech Inc., priority 2008, dated 2013).
In brackets after ≈: the same amount, converted by molar mass.

Legend:
Assay type in all cases: cell-based
Burkholderia cepacia = assay: MIC in 96 well microtiter plate, B. cepacia; details: TSB, 5×10^5 CFU/mL, 37° C.
Procedure: (§1) The antimicrobial activity of 5-fluorouracil (FU) was studied by determining minimal inhibitory concentrations (MIC) in a 96 well microtiter plate. Briefly, serial two-fold dilutions of FU were performed in TSB. A suspension of each microorganism from Table 1 was added to wells at a concentration of 5×10^5 CFU/mL, and the microtiter plates were incubated at 37° C. The MIC was defined, as the lowest concentration of an antimicrobial required for total inhibition of a test microorganism at 37° C. 5-Fluorouracil was active against all the pathogens tested (Table 1).

[1] = tested on: cystic fibrosis-associated pathogens; assay: antimicrobial activity (MIC) against all pathogens tested; details: pathogens of Table 1
Procedure: as §1

Staphylococcus aureus = assay: MIC in 96 well microtiter plate, S. aureus; details: TSB, 5×10^5 CFU/mL, 37° C.
Procedure: as §1

Pseudomonas aeruginosa = assay: MIC in 96 well microtiter plate, P. aeruginosa; details: TSB, 5×10^5 CFU/mL, 37° C.
Procedure: as §1

Structure (SMILES): O=c1[nH]cc(F)c(=O)[nH]1 [5-Fluorouracil, 5-fluoro-2,4(1H,3H)-Pyrimidinedione]
- MIC (Burkholderia cepacia): 62.5 µg/mL (≈ 480 µM)
- antimicrobial activity against all the pathogens tested [1]: active
- MIC (Staphylococcus aureus): 25 µg/mL (≈ 192 µM)
- MIC (Pseudomonas aeruginosa): 31.2 µg/mL (≈ 240 µM)
